In assay [1] the target is T1, HCV NS5B RdRp genotype 1b (Hepatitis C virus genotype 1b, UniProt Q9WMX2).
T1 construct: The protein was expressed with an 18 amino acid C-terminal truncation to enhance the solubility; made in house; host or cells: E. coli BL21 (DE3), pET21a
The experiment in a line: Modified HCV NS5B RdRp enzyme assay (with preincubation). Format: biochemical. The following applies: modified method (with preincubation). How it is done:
HCVNS5B RdRp cloning, expression, and purification. The cDNA encoding the NS5B protein of HCV, genotype 1b, was cloned into the pET21a expression vector. The protein was expressed with an 18 amino acid C-terminal truncation to enhance the solubility. The E. coli competent cell line BL21 (DE3) was used for expression of the protein. Cultures were grown at 37° C. for ˜4 hours until the cultures reached an optical density of 2.0 at 600 nm. The cultures were cooled to 20° C. and induced with 1 mM IPTG. Fresh ampicillin was added to a final concentration of 50 μg/ml and the cells were grown overnight at 20° C.
Cell pellets (3 L) were lysed for purification to yield 15-24 mgs of purified NS5B. The lysis buffer consisted of 20 mM Tris-HCl, pH 7.4, 500 mM NaCl, 0.5% triton X-100, 1 mM DTT, 1 mM EDTA, 20% glycerol, 0.5 mg/ml lysozyme, 10 mM MgCl2, 15 ug/ml deoxyribonuclease I, and Complete TM protease inhibitor tablets (Roche). After addition of the lysis buffer, frozen cell pellets were resuspended using a tissue homogenizer. To reduce the viscosity of the sample, aliquots of the lysate were sonicated on ice using a microtip attached to a Branson sonicator. The sonicated lysate was centrifuged at 100,000×g for 1 hr at 4° C. and filtered through a 0.2 μm filter unit (Corning).
The protein was purified using three sequential chromatography steps: Heparin sepharose CL-6B, polyU sepharose 4B, and Hitrap SP sepharose (Pharmacia). The chromatography buffers were identical to the lysis buffer but contained no lysozyme, deoxyribonuclease I, MgCl2 or protease inhibitor and the NaCl concentration of the buffer was adjusted according to the requirements for charging the protein onto the column. Each column was eluted with a NaCl gradient which varied in length from 5-50 column volumes depending on the column type. After the final chromatography step, the resulting purity of the enzyme is >90% based on SDS-PAGE analysis. The enzyme was aliquoted and stored at −80° C.
Standard HCV NS5B RdRp enzyme assay. HCV RdRp genotype Ib assays were run in a final volume of 60 μl in 96 well plates (Costar 3912). The assay buffer is composed of 20 mM Hepes, pH 7.5, 2.5 mM KCl, 2.5 mM MgCl2, 1 mM DTT, 1.6 U RNAse inhibitor (Promega N2515), 0.1 mg/ml BSA (Promega R3961), and 2% glycerol. All compounds were serially diluted (3-fold) in DMSO and diluted further in water such that the final concentration of DMSO in the assay was 2%. HCV RdRp genotype 1b enzyme was used at a final concentration of 28 nM. A polyA template was used at 6 nM, and a biotinylated oligo-dT12 primer was used at 180 nM final concentration. Template was obtained commercially (Amersham 27-4110). Biotinylated primer was prepared by Sigma Genosys. ^3H-UTP was used at 0.6 μCi (0.29 μM total UTP). Reactions were initiated by the addition of enzyme, incubated at 30° C. for 60 min, and stopped by adding 25 μl of 50 mM EDTA containing SPA beads (4 μg/μl, Amersham RPNQ 0007). Plates were read on a Packard Top Count NXT after >1 hr incubation at room temperature.
Modified HCV NS5B RdRp enzyme assay. A modified enzyme assay was performed essentially as described for the standard enzyme assay except for the following: The biotinylated oligo dT12 primer was precaptured on streptavidin-coated SPA beads by mixing primer and beads in assay buffer and incubating at room temperature for one hour. Unbound primer was removed after centrifugation. The primer-bound beads were resuspended in 20 mM Hepes buffer, pH 7.5 and used in the assay at final concentrations of 20 nM primer and 0.67 μg/μl beads. Order of addition in the assay: enzyme (14 nM) was added to diluted compound followed by the addition of a mixture of template (0.2 nM), ^3H-UTP (0.6 μCi, 0.29 μM), and primer-bound beads, to initiate the reaction; concentrations given are final. Reactions were allowed to proceed for 4 hours at 30° C.
The IC50 values for compounds were determined using seven different [I]. […]

The test system of assay [2] is HCV replicon. In words: HCV replicon FRET assay. Format: cell-based. The following applies: Hepatitis C virus; FRET assay; read-out: EC50. How it is done:
The IC50 values for compounds were determined using seven different [I]. IC50 values were calculated from the inhibition using the formula y=A+((B−A)/(1+((C/x)^D))). FRET Assay Preparation. To perform the HCV FRET screening assay, 96-well cell culture plates were used. The FRET peptide (Anaspec, Inc.) (Taliani et al., Anal. Biochem. 240:60-67 (1996), hereby incorporated by reference in its entirety) contains a fluorescence donor, EDANS, near one end of the peptide and an acceptor, DABCYL, near the other end. The fluorescence of the peptide is quenched by […] resonance energy transfer (RET) between the donor and the acceptor, but as the NS3 protease cleaves the peptide the products are released from RET quenching and the fluorescence of the donor becomes apparent. The assay reagent was made as follows: 5× cell Luciferase cell culture lysis reagent from Promega (#E153A) diluted to 1× with dH2O, NaCl added to 150 mM final, the FRET peptide diluted to 20 uM final from a 2 mM stock.
To prepare plates, HCV replicon cells, with or without a Renilla luciferase reporter gene, were trypsinized and placed into each well of a 96-well plate with titrated test compounds added in columns 3 through 12; columns 1 and 2 contained a control compound (HCV protease inhibitor), and the bottom row contained cells without compound. The plates were then placed in a CO2 incubator at 37 degrees C.
Assays. Subsequent to addition of the test compounds described above (FRET Assay Preparation), at various times the plate was removed and Alamar blue solution (Trek Diagnostics, #00-100) was added per well as a measure of cellular toxicity. After reading in a Cytoflour 4000 instrument (PE Biosystems), plates were rinsed with PBS and then used for FRET assay by the addition of 30 ul of the FRET peptide assay reagent described above (FRET Assay Preparation) per well. The plate was then placed into the Cytoflour 4000 instrument which had been set to 340 excite/490 emission, automatic mode for 20 cycles and the plate read in a kinetic mode. Typically, the signal to noise using an endpoint analysis after the reads was at least three-fold. Alternatively, after Alamar blue reading, plates were rinsed with PBS, 50 ul of DMEM (high glucose) without phenol red was added and plates were then used for luciferase assay using the Promega Dual-Glo Luciferase Assay System.
Compound analysis was determined by quantification of the relative HCV replicon inhibition and the relative cytotoxicity values. To calculate cytoxicity values, the average Alamar Blue fluorescence signals from the control wells were set as 100% non-toxic. The individual signals in each of the compound test wells were then divided by the average control signal and multiplied by 100% to determine […]. To calculate the HCV replicon inhibition values, an average background value was obtained from the two wells containing the highest amount of HCV protease inhibitor at the end of the assay period. These numbers were similar to those obtained from naïve Huh-7 cells.
The background numbers were then subtracted from the average signal obtained from the control wells and this number was used as 100% activity. The individual signals in each of the compound test wells were then divided by the averaged control values after background subtraction and multiplied by 100% to determine percent activity. EC50 values for a protease inhibitor titration were calculated as the concentration which caused a 50% reduction in FRET or luciferase activity. The two numbers generated for the compound plate, percent cytoxicity and percent activity were used to determine compounds of interest for further analysis.
(In general: Replicon systems follow genome replication, usually without infectious particles.)

pEC50, pIC50: −log10 of the molar value. A value given as a limit tells only on which side of the number the result lay.

T1 sequence (Q9WMX2 2420-2992): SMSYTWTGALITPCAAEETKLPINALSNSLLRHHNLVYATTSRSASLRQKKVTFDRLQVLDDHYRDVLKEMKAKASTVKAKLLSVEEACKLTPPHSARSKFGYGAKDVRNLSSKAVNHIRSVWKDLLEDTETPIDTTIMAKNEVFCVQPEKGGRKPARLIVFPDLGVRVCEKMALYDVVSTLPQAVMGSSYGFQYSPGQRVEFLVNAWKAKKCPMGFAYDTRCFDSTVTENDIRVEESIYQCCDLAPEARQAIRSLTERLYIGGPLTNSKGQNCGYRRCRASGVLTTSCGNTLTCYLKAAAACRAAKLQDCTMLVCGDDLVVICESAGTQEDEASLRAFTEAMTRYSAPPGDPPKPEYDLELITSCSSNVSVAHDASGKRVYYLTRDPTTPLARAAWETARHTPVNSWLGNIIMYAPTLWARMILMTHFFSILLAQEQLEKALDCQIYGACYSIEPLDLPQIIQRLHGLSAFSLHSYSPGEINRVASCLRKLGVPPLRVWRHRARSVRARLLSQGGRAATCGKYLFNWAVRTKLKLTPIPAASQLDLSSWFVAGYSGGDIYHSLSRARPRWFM

As to `Cn1c(C(=O)O)cc2cc(NC(=O)C3(NC(=O)c4ccc5c(C6CCCCC6)c6n(c5c4)CC(=O)Nc4ccccc4-6)CCCC3)ccc21`, in assay [1], the pIC50 (usually the negative decadic logarithm of the IC50, by convention in mol/L) is 6.00 to 7.70. Moreover, the pEC50 – broadly, −log10 of the EC50, conventionally taken in molar units – in assay [2] was 6.00 to 8.00.

In assay [1], `CN(C)CCNC(=O)C1=Cc2ccccc2-c2c(C3CCCCC3)c3ccc(C(=O)NC4(C(=O)Nc5ccc6c(c5)cc(C(=O)O)n6C)CCCC4)cc3n2C1` gave a pIC50 of 6.00 to 7.70. Further, the pEC50 in assay [2] was 6.00 to 8.00.

As to `COC(=O)/C=C/c1ccc2[nH]c(C3(NC(=O)c4ccc5c(C6CCCCC6)c6n(c5c4)CC(=O)Nc4ccccc4-6)CCCC3)nc2c1`, the pIC50 in assay [1] is 6.00 to 7.70. Further, the pEC50 in assay [2] was above 7.00.

For the molecule `CCOC(=O)/C=C/c1ccc(NC(=O)C2(NC(=O)c3ccc4c(C5CCCCC5)c5n(c4c3)CC(=O)Nc3ccccc3-5)CCNCC2)cc1`, the pIC50 in assay [1] was 6.00 to 7.70. Besides, in assay [2], the pEC50 is 6.00 to 8.00.

In turn, `COC(=O)c1ccc2c(C3CCCCC3)c3n(c2c1)CC(=O)N(CCN(C)C)c1ccccc1-3` had a negative-log IC50 (pIC50) in assay [1] below 6.00. The pEC50 in assay [2] was 5.00 to 6.00.

As for `CN1C(=O)Cn2c(c(C3CCCCC3)c3ccc(C(=O)NC4(C(=O)Nc5ccc6c(c5)cc(C(=O)O)n6C)CCCC4)cc32)-c2ccccc21`, the pIC50 in assay [1] is 6.00 to 7.70. The pEC50 in assay [2] is 6.00 to 8.00.

With `O=C1Cn2c(c(C3CCCCC3)c3ccc(C(=O)NS(=O)(=O)N4CCCC4)cc32)-c2ccccc2N1`, the pIC50 in assay [1] is 6.00 to 7.70. Besides, in assay [2], the pEC50 is 6.00 to 8.00.

In assay [1], `CN(Cc1ccccc1)S(=O)(=O)NC(=O)c1ccc2c(C3CCCCC3)c3n(c2c1)CC(=O)Nc1ccccc1-3` had a pIC50 of 6.00 to 7.70. Also, the pEC50 in assay [2] is 6.00 to 8.00.

Regarding `O=C(O)/C=C/c1ccc2[nH]c(C3(NC(=O)c4ccc5c(C6CCCCC6)c6c7ccccc7ncn6c5c4)CCCC3)nc2c1`, in assay [1], the pIC50 is 6.00 to 7.70. In assay [2], the pEC50 was 6.00 to 8.00.

`CN(C)CCN1C(=O)Cn2c(c(C3CCCCC3)c3ccc(C(=O)O)cc32)-c2ccccc21` gave a pIC50 in assay [1] of 6.00 to 7.70. In assay [2], the pEC50 was 6.00 to 8.00.

In turn, `COC(=O)/C=C/c1ccc(CN(C)S(=O)(=O)NC(=O)c2ccc3c(C4CCCCC4)c4n(c3c2)CC(=O)Nc2ccccc2-4)cc1` had a pIC50 in assay [1] of 6.00 to 7.70. Also, the pEC50 in assay [2] is 6.00 to 8.00.

For the molecule `COC(=O)c1ccc(CN(C)S(=O)(=O)NC(=O)c2ccc3c(C4CCCCC4)c4n(c3c2)CC(=O)Nc2ccccc2-4)cc1`, the pIC50 in assay [1] is 6.00 to 7.70. In assay [2], the pEC50 was 6.00 to 8.00.

On to `CN(Cc1ccc(C(=O)O)cc1)S(=O)(=O)NC(=O)c1ccc2c(C3CCCCC3)c3n(c2c1)CC(=O)Nc1ccccc1-3`, for which the pIC50 in assay [1] is 6.00 to 7.70. Besides, in assay [2], the pEC50 is 5.00 to 6.00.

In assay [1], `CN(Cc1ccc(/C=C/C(=O)O)cc1)S(=O)(=O)NC(=O)c1ccc2c(C3CCCCC3)c3n(c2c1)CC(=O)Nc1ccccc1-3` had a pIC50 of 6.00 to 7.70. For the same molecule, the pEC50 in assay [2] is 5.00 to 6.00.

The molecule `COC(=O)/C=C/c1ccc(NC(=O)C2(NC(=O)c3ccc4c(C5CCCCC5)c5n(c4c3)CCCc3sc(C)nc3-5)CCCC2)cc1` had a pIC50 in assay [1] below 6.00. In addition, the pEC50 in assay [2] is below 5.00.

For `Cc1nc2c(s1)CCCn1c-2c(C2CCCCC2)c2ccc(C(=O)O)cc21`, the pIC50 in assay [1] was below 6.00. Moreover, the pEC50 in assay [2] was below 5.00.

Regarding `Nc1nc2c(s1)CCCn1c-2c(C2CCCCC2)c2ccc(C(=O)O)cc21`, the pIC50 in assay [1] was below 6.00. For the same molecule, the pEC50 in assay [2] is below 5.00.

`Cc1nc2c(s1)CCCn1c-2c(C2CCCCC2)c2ccc(C(=O)NC3(C(=O)Nc4ccc(/C=C/C(=O)O)cc4)CCCC3)cc21` gave a pIC50 in assay [1] of 6.00 to 7.70. Moreover, the pEC50 in assay [2] was 5.00 to 6.00.

`N#CC1C(=O)Cn2c(c(C3CCCCC3)c3ccc(C(=O)O)cc32)-c2ccccc21` (stereo not shown) had a pIC50 in assay [1] of 6.00 to 7.70. For the same molecule, the pEC50 in assay [2] was below 5.00.

`COc1cc(CNC(=O)c2ccc3c(C4CCCCC4)c4n(c3c2)CC(=O)Nc2ccccc2-4)ccc1O` had a pIC50 in assay [1] of 6.00 to 7.70. Further, the pEC50 in assay [2] was above 7.00.

With `O=C(O)c1ccc2c(C3CCCCC3)c3n(c2c1)CCCc1ocnc1-3`, the pIC50 in assay [1] was below 6.00. For the same molecule, in assay [2], the pEC50 was below 5.00.

On to `CS(=O)(=O)NC(=O)c1ccc2c(C3CCCCC3)c3n(c2c1)CC(C(=O)N1CCOCC1)Cc1ccccc1-3` (stereo not shown) [drawing 349], for which the pIC50 in assay [1] is 6.00 to 7.70.

Source of the values: patent US7348425B2, “Inhibitors of HCV replication” (Bristol-Myers Squibb Company, priority 2004, dated 2008).
